# Key:
# Assay in all cases: pTyr-Var library bacterial peptide display kinase screen (enrichment scores)
# [1] = system: Fer kinase domain; type: biochemical, mouse; settings: sheet "Fer";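 further: log2 fold change in enrichment of variant over reference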
# [2] = system: EPHB1 kinase domain; type: biochemical, human; settings: for Screen: sheet EPHB1, effect of the variant peptide relative to its reference peptide in the pTyr-Var library screen (enrichment scores)
# [3] = target: T1, c-Abl kinase domain (Mus musculus, UniProt P00520); type: biochemical;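 further: log2 fold change in enrichment of variant over reference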
# T1 sequence (P00520 242-493 limits assumed): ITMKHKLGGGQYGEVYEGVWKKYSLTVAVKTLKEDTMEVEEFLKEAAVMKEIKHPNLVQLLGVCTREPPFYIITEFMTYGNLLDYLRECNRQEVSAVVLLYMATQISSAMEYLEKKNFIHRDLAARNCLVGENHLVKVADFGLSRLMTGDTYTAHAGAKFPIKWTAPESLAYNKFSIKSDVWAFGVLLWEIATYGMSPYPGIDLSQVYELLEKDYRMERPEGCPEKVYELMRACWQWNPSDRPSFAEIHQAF
# [4] = target: c-Src kinase domain (Homo sapiens, UniProt P12931); type: biochemical; settings: sheet "Src";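 further: log2 fold change in enrichment of variant over reference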
# [5] = variant peptide relative to its reference peptide, pTyr-Var library screen enrichment
# [6] = sheet "Abl", effect of variant peptide relative to its reference peptide in pTyr-Var library screen (enrichment)
# [7] = value of the variant peptide against its reference peptide in the pTyr-Var library screen with Fer
# [8] = variant peptide versus its reference peptide in the pTyr-Var library screen
# [9] = fig5-data2, sheet "Abl", Screen for the variant/reference peptide pair, pTyr-Var library
# [10] = effect of the variant peptide relative to its reference peptide in the pTyr-Var library screen
sequence,measurement,setting,value
QDRTFYERVRT [SPEN_Y633_S635R_YF],Screen,[1]; [5],-1.346
LKRCQYVTKKV [ALDOA_Y204_E207K],Screen,[2],-1.465
KNNSIYVLANI [VNN1_Y134_V136L],Screen,[3]; [6],-3.297
same,Screen,[1]; [5],1.88
KDQGIYEDFVE [MYL6_Y86_T85I_YF],Screen,[1]; [7],1.02
same,Screen,[4]; [8],1.232
VDEVLYEDSSA [MTHFS_Y197_T202A],Screen,[1]; [7],-0.2341
QTEAPYRFIFM [PTPN11_Y511_Q510P_YF],Screen,[1]; [7],2.526
TTPFNYSFIFK [RAB14_Y8_A4T_YF],Screen,[2],0.03762
ADLVQYFMEHH [PTPN11_Y80_E76D_YF],Screen,[3]; [9],0.02377
TQPSPYAVFLF [RPGRIP1_Y823_R827L_YF],Screen,[1]; [5],-0.3535
same,Screen,[2],-0.3084
same,Screen,[4]; [8],-0.4188
LREKVYVSLEA [RXRA_Y397_A398V],Screen,[4]; [8],-2.342
LLTKVYVVEGS [ZMPSTE24_Y253_P248L],Screen,[3]; [6],-5.536
SKHHLYSDLQT [PTCHD1_Y84_R82H],Screen,[1]; [7],1.431
SGSFRYGSSFE [SELE_Y390_C394F],Screen,[3]; [6],-0.02524
ICFSDYVEVAD [PHACTR1_Y525_R521C],Screen,[3]; [9],1.249
same,Screen,[2],0.304
PVGVLYEVKVF [PTS_Y128_K129E_YF],Screen,[1]; [5],1.639
same,Screen,[2],0.4109
HGAKVYIDPFT [EPHB4_Y590_T587A],Screen,[3]; [9],1.249
IGVDSYSVCKR [RPS6KA3_Y433_G431D],Screen,[3]; [9],0.006002
DDSNPYINVKL [MTHFD1_Y52_L51P],Screen,[3]; [9],-0.8391
LVLIKYLPEWT [PSEN1_Y240_F237L],Screen,[3]; [9],1.753
DENWFYTQAAS [RPS19_Y54_R56Q],Screen,[3]; [9],0.05995
SSTAMYSAAGR [PSMB1_Y8_P11A],Screen,[3]; [9],-0.5664
QAIDEYEKWLE [MAP9_Y603_N601D],Screen,[2],-0.2835
NAGAFYVLSTL [FLVCR2_Y325_A326V],Screen,[1]; [7],-2.63
PAIFTYDEFKK [COL8A2_Y648_T645I_YF],Screen,[1]; [7],-2.501
same,Screen,[4]; [10],0.8342
DHPSEYAARQL [ANXA13_Y90_R86H],Screen,[3]; [9],0.8208
MNKNAYHNVTT [ST3GAL6_Y306_A311T],Screen,[3]; [6],-0.8996
DAAEDYAEGVC [DHODH_Y194_R199C],Screen,[3]; [9],-0.7613
QRRNVYFFSFL [PTEN_Y176_Y174N_YF],Screen,[1]; [7],-1.418
SEKISYVFMKR [SSX7_Y48_L43S_YF],"Screen (variant relative to reference peptide, measured in the pTyr-Var library screen)","[2]; sheet ""EPHB1"", variant seq vs reference seq, bacterial peptide display enrichment",-1.247
FRAVKYLQMVG [AVPR2_Y117_C112Y_YF],Screen,[3]; [9],1.48
IVRSPYEDLED [VHL_Y185_L184P],Screen,[3]; [6],0.8994
AMGPVYQAAAL [HYOU1_Y421_A419P],Screen,[1]; [7],1.97
same,Screen,[4]; [10],0.5389
LQKNIYSEELR [LMNA_Y211_F206L],Screen,[2],0.6923
same,Screen,[4]; [10],-1.475
DFPGIYSGFDD [POLR1C_Y33_N32I_YF],Screen,[4]; [8],3.694
DLQDEYDFKRK [STAT1_Y170_C174R],Screen,[3]; [6],-1.312
TRDVNYGWIIH [MT-CYB_Y75_R80H],Screen,[1]; [7],3.39
AATTAYSKPKQ [MAP3K7_Y405_R410Q],Screen,[3]; [9],-0.9283
QRASDYFSQQM [GBP6_Y333_A331S_YF],Screen,[2],1.684
GSSKIYFLHAD [TLR5_Y108_P112A],Screen,[4]; [8],-1.042
PKDSAYVTWEP [TTN_Y20731_S20726P],Screen,[1]; [5],0.6125
same,Screen,[4]; [8],0.3327
FEPWVYSLSFE [PRKDC_Y647_F649L_YF],Screen,[3]; [9],-0.5163
same,Screen,[4]; [8],0.05044
VFGVSYDEFRF [CFTR_Y512_I507V_YF],Screen,[1]; [7],0.375
same,Screen,[4]; [10],0.2836
FQKNVYSEELR [LMNA_Y211_I210V],Screen,[4]; [10],-1.452
AQMAMYFWEMS [TRPM4_Y577_G582S],Screen,[4]; [8],-0.06271
AEFGLYRAMVR [VSX2_Y222_G223R_YF],Screen,[3]; [6],2.423
same,Screen,[4]; [8],-2.091
AKAFIYASHIV [ZNF573_Y229_G224A],Screen,[1]; [5],0.4356
same,Screen,"[4]; effect of the variant peptide against its reference peptide, seen in the pTyr-Var library screen",0.3183
HITQVYGFFDE [PPP2CA_Y127_Q122H_YF],Screen,[4]; [8],0.5425
KRAAIYNPVIF [RHO_Y301_S297R_YF],Screen,[1]; [5],-0.6585
same,Screen,[4]; [8],-1.114
FLTQHYDAIPQ [ANG_Y38_K41I],Screen,[1]; [7],3.881
DCLASYLDKVR [KRT16_Y131_R127C],Screen,[3]; [9],1.893
MLEAPYVDRNS [F10_Y384_V382A],Screen,[3]; [9],1.1
QMIETYFDFRV [NSMF_Y506_L511V],Screen,[2],-0.6862
same,Screen,[4]; [8],-0.8869
FKEVVYQAMEE [TACC3_Y684_E680K],Screen,[4]; [8],-0.2069
EFSNQYKATIG [RAB7A_Y37_K32E],Screen,[3]; [9],1.976
